Drawing on ChEMBL document CHEMBL1155630, “New metabolites from the West Indian sea feather Pseudopterogorgia bipinnata” (J Nat Prod, 2000), this text covers Activity for 2 compounds.

Calls of active or inactive are those of the source. The rule behind the calls is not given here.

This experiment deals with Mycobacterium tuberculosis. Nature of the experiment: Antitubercular activity against Mycobacterium tuberculosis H37Rv at 6.25 ug/mL. The experiment is classed as functional, organism-based.

For the compound `C=C(C)[C@H](CCC1=C[C@H](CC(C)=O)OC1=O)[C@H](O)c1oc(C(C)=O)cc1C`, the result was inactive.
As for `C=C1CC(=O)/C=C(/C)C[C@@H]2OC(=O)[C@]3(O[C@@H]23)[C@H]2C[C@@H]([C@@]3(C)CO3)[C@H](O)[C@]1(O)O2`, the entry is “inactive”.
